In patent US20240207292A1, “BORONIC ACID COMPOUNDS, COMPOSITIONS AND METHODS” (Trustees of Tufts College, priority 2021, published 2024):

Assay: Stability of 6555 with sulfur-containing and other stabilizers, 50 mM AAPH at 80° C. for 30 mins (Tables 7-9)
Format: physicochemical
Settings: for 6555 Remaining (%): 50 mM AAPH, 80° C., 0.5 hr, (+) mode, sodium ascorbate 5 mM, sodium gentisate 2 mM, sodium metabisulfite 5 mM
Source text: The effect of specified sulfur-containing compounds and other stabilizer compounds (including non-sulfur-containing stabilizer compounds) and mixtures of sulfur-containing compounds and non-sulfur-containing stabilizer compounds with the boronic acid compound 6555 (structure shown above) at various pH values.

SMILES: C[C@@H](NC(=O)c1ccc(CNC(=O)CN2CCN(CC(=O)O)CCN(CC(=O)O)CCN(CC(=O)O)CC2)cc1)C(=O)N1CCC[C@H]1B(O)O [compound 6555, DOTA-aminomethyl-Bz-D-Ala-boroPro]
- 6555 Remaining (%) (disodium hydrosulfite 5 mM, pH 4.4): 95.3%
- 6555 Remaining (%) (pH 4.5): 95.6%
- 6555 Remain (%) (Sodium ascorbate (2.5 mM) +, Sodium gentisate (1 mM) +, Stabilizer (2.5 mM) Sodium sulfite, pH 5.1, SID 90517, AAPH 80° C. 30 mins): 94.1%
- 6555 Remain (%) (ascorbate (2.5 mM) +, gentisate (1 mM) +, Sodium hydrosulfite 2.5 mM, pH 4.4, SID 90537, AAPH 80° C. 30 mins): 91.7%
- 6555 Remain (%) (ascorbate (2.5 mM) +, gentisate (1 mM) +, Sodium hydrosulfite 5.0 mM, pH 4.5, SID 90542, AAPH 80° C. 30 mins): 94.3%
- 6555 Remain (%) (ascorbate (2.5 mM) +, gentisate (1 mM) +, Sodium hydrosulfite 10.0 mM, pH 4.5, SID 90532, AAPH 80° C. 30 mins): 94.1%
- 6555 Remain (%) (ascorbate (2.5 mM) +, gentisate (1 mM) +, Sodium hydrosulfite 25.0 mM, pH 4.3, SID 90539, AAPH 80° C. 30 mins): 94.1%
- 6555 Remain (%) (ascorbate (2.5 mM) +, gentisate (1 mM) +, Sodium hydrosulfite 40.00 mM, pH 4.0, SID 90538, AAPH 80° C. 30 mins): 94.6%
- 6555 Remain (%) (ascorbate (2.5 mM) +, gentisate (1 mM) +, Sodium sulfite 2.5 mM, pH 4.5, SID 90616, AAPH 80° C. 30 mins): 67.9%
- 6555 Remain (%) (ascorbate (2.5 mM) +, gentisate (1 mM) +, Sodium sulfite 5.0 mM, pH 4.6, SID 90617, AAPH 80° C. 30 mins): 90.3%
- 6555 Remain (%) (ascorbate (2.5 mM) +, gentisate (1 mM) +, Sodium sulfite 10.0 mM, pH 4.8, SID 90613, AAPH 80° C. 30 mins): 93.8%
- 6555 Remain (%) (ascorbate (2.5 mM) +, gentisate (1 mM) +, Sodium sulfite 25.0 mM, pH 5.1, SID 90517, AAPH 80° C. 30 mins): 94.1%
- 6555 Remain (%) (ascorbate (2.5 mM) +, gentisate (1 mM) +, Stabilizer (1 mM) NAM, pH 4.6, SID 90629, AAPH 80° C. 30 mins): 30.8%
- 6555 Remain (%) (ascorbate (2.5 mM) +, gentisate (1 mM) +, Stabilizer (1 mM) Sodium hydrosulfite, pH 4.5, SID 90629, AAPH 80° C. 30 mins): 47.4%
- 6555 Remain (%) (ascorbate (2.5 mM) +, gentisate (1 mM) +, Stabilizer (1 mM) Sodium metabisulfite, pH 4.5, SID 90628, AAPH 80° C. 30 mins): 71.1%
- 6555 Remain (%) (ascorbate (2.5 mM) +, gentisate (1 mM) +, Stabilizer (2.5 mM) Acetone sodium bisulfite, pH 4.6, SID 90523, AAPH 80° C. 30 mins): 94.0%
- 6555 Remain (%) (ascorbate (2.5 mM) +, gentisate (1 mM) +, Stabilizer (2.5 mM) Acetone sodium bisulfite, pH 4.6, SID 90621, second listing, AAPH 80° C. 30 mins): 73.1%
- 6555 Remain (%) (ascorbate (2.5 mM) +, gentisate (1 mM) +, Stabilizer (2.5 mM) D-mannitol, pH 4.5, SID 90641, AAPH 80° C. 30 mins): 15.5%
- 6555 Remain (%) (ascorbate (2.5 mM) +, gentisate (1 mM) +, Stabilizer (2.5 mM) MSM(dimethyl sulfone), pH 4.5, SID 90598, AAPH 80° C. 30 mins): 8.2%
- 6555 Remain (%) (ascorbate (2.5 mM) +, gentisate (1 mM) +, Stabilizer (2.5 mM) N-Acetyl-L-phenylalanine, pH 4.0, SID 90610, AAPH 80° C. 30 mins): 20.1%
- 6555 Remain (%) (ascorbate (2.5 mM) +, gentisate (1 mM) +, Stabilizer (2.5 mM) N-Acetyl-L-tyrosine, pH 4.0, SID 90589, AAPH 80° C. 30 mins): 13.6%
- 6555 Remain (%) (ascorbate (2.5 mM) +, gentisate (1 mM) +, Stabilizer (2.5 mM) NAC, pH 4.1, SID 90582, AAPH 80° C. 30 mins): 31.4%
- 6555 Remain (%) (ascorbate (2.5 mM) +, gentisate (1 mM) +, Stabilizer (2.5 mM) NAM, pH 4.0, SID 90543, AAPH 80° C. 30 mins): 90.8%
- 6555 Remain (%) (ascorbate (2.5 mM) +, gentisate (1 mM) +, Stabilizer (2.5 mM) NAM, pH 4.5, SID 90623, second listing, AAPH 80° C. 30 mins): 53.3%
- 6555 Remain (%) (ascorbate (2.5 mM) +, gentisate (1 mM) +, Stabilizer (2.5 mM) Potassium metabisulfite, pH 4.4, SID 90622, second listing, AAPH 80° C. 30 mins): 93.7%
- 6555 Remain (%) (ascorbate (2.5 mM) +, gentisate (1 mM) +, Stabilizer (2.5 mM) Potassium metabisulfite, pH 4.5, SID 90526, AAPH 80° C. 30 mins): 94.1%
- 6555 Remain (%) (ascorbate (2.5 mM) +, gentisate (1 mM) +, Stabilizer (2.5 mM) Sodium L-Glutamate monohydrate, pH 4.7, SID 90604, AAPH 80° C. 30 mins): 8.2%
- 6555 Remain (%) (ascorbate (2.5 mM) +, gentisate (1 mM) +, Stabilizer (2.5 mM) Sodium formaldehydesulfoxylate dihydrate, pH 4.4, SID 90527, AAPH 80° C. 30 mins): 91.7%
- 6555 Remain (%) (ascorbate (2.5 mM) +, gentisate (1 mM) +, Stabilizer (2.5 mM) Sodium formaldehydesulfoxylate dihydrate, pH 4.5, SID 90620, second listing, AAPH 80° C. 30 mins): 58.0%
- 6555 Remain (%) (ascorbate (2.5 mM) +, gentisate (1 mM) +, Stabilizer (2.5 mM) Sodium hydrosulfite, pH 4.3, SID 90539, AAPH 80° C. 30 mins): 94.1%
- 6555 Remain (%) (ascorbate (2.5 mM) +, gentisate (1 mM) +, Stabilizer (2.5 mM) Sodium hydrosulfite, pH 4.4, SID 90537, second listing, AAPH 80° C. 30 mins): 91.7%
- 6555 Remain (%) (ascorbate (2.5 mM) +, gentisate (1 mM) +, Stabilizer (2.5 mM) Sodium metabisulfite, pH 4.4, SID 90515, AAPH 80° C. 30 mins): 93.8%
- 6555 Remain (%) (ascorbate (2.5 mM) +, gentisate (1 mM) +, Stabilizer (2.5 mM) Sodium metabisulfite, pH 4.5, SID 90619, second listing, AAPH 80° C. 30 mins): 93.4%
- 6555 Remain (%) (ascorbate (2.5 mM) +, gentisate (1 mM) +, Stabilizer (2.5 mM) Sodium sulfite, pH 4.5, SID 90616, second listing, AAPH 80° C. 30 mins): 67.9%
- 6555 Remain (%) (ascorbate (2.5 mM) +, gentisate (1 mM) +, Stabilizer (2.5 mM) Thiourea, pH 4.5, SID 90607, AAPH 80° C. 30 mins): 84.1%
- 6555 Remain (%) (ascorbate (2.5 mM) +, gentisate (1 mM) +, Stabilizer none, pH 5.1, SID 90525, AAPH 80° C. 30 mins): 16.7%
- 6555 Remain (%) (ascorbate none, gentisate none, Stabilizer (2.5 mM) NAM, pH 4.0, SID 90640, AAPH 80° C. 30 mins): 85.9%
- 6555 Remain (%) (ascorbate none, gentisate none, Stabilizer none, pH 4.6, SID 90646, AAPH 80° C. 30 mins): 55.8%
- 6555 Remain (%) (mM: ascorbate 0, gentisate 0, NAM 5, metabisulfite 5, hydrosulfite 0, pH 4.3, SID 90664, 50 mM AAPH 80° C. 30 mins): 88.8%
- 6555 Remain (%) (mM: ascorbate 2.5, gentisate 1, NAM 2.5, metabisulfite 2.5, hydrosulfite 0, pH 4.5, SID 90637, 50 mM AAPH 80° C. 30 mins): 94.8%
- 6555 Remain (%) (mM: ascorbate 2.5, gentisate 1, NAM 10, metabisulfite 2.5, hydrosulfite 0, pH 4.0, SID 90638, 50 mM AAPH 80° C. 30 mins): 93.2%
- 6555 Remain (%) (mM: ascorbate 2.5, gentisate 1, NAM 25, metabisulfite 2.5, hydrosulfite 0, pH 4.0, SID 90631, 50 mM AAPH 80° C. 30 mins): 92.2%
- 6555 Remain (%) (mM: ascorbate 5, gentisate 2, NAM 0, metabisulfite 5, hydrosulfite 0, pH 4.5, SID 90643, 50 mM AAPH 80° C. 30 mins): 95.6%
- 6555 Remain (%) (mM: ascorbate 5, gentisate 2, NAM 0, metabisulfite 5, hydrosulfite 5, pH 4.4, SID 90686, 50 mM AAPH 80° C. 30 mins): 95.3%
- 6555 Remain (%) (mM: ascorbate 5, gentisate 2, NAM 5, metabisulfite 0, hydrosulfite 0, pH 4.5, SID 90642, 50 mM AAPH 80° C. 30 mins): 66.5%
- 6555 Remain (%) (mM: ascorbate 5, gentisate 2, NAM 5, metabisulfite 0, hydrosulfite 5, pH 4.5, SID 90701, 50 mM AAPH 80° C. 30 mins): 95.7%
- 6555 Remain (%) (mM: ascorbate 5, gentisate 2, NAM 5, metabisulfite 5, hydrosulfite 0, pH 4.5, SID 90639, 50 mM AAPH 80° C. 30 mins): 95.8%
- 6555 Remain (%) (mM: first column (ascorbate) 2.5, gentisate 1, NAM 0, metabisulfite 2.5, hydrosulfite 0, pH 4.5, SID 90619, 50 mM AAPH 80° C. 30 mins): 93.4%
